Assays:
cannabinoid receptors = assay: GTPγS binding in end stage spinal cord homogenates from G93A-SOD1 mice, separated by gender; format: biochemical, mouse; details: for 2-AG stimulated G-protein activation remaining on co-incubation with CB2 ligand / HU-210 stimulated G-protein activation remaining on co-incubation with CB2 ligand: ligand 1 μM
Method: [^35S]GTPγS binding assays were performed as described previously (Prather et al. 2000a) in a buffer containing 20 mM Hepes, 100 mM NaCl, and 10 mM MgCl2 at pH 7.4. Each binding reaction contained 10 μg of spinal cord membrane protein, the presence or absence of cannabinoid ligands (see following), plus 0.1 nM [^35S]GTPγS (1250 Ci/mmol, Perkin Elmer Life and Analytical Sciences) and […] of GDP to suppress basal G-protein activation. Reactions were incubated for 2 hrs at 30 °C. Non-specific binding was defined by binding observed in the presence of 10 μM of non-radioactive GTPγS. The reaction was terminated by rapid vacuum filtration through glass fiber filters followed by two washes with ice-cold assay buffer. 4 mL of scintiverse® (Fisher Scientific) was added to the filters and radioactivity quantified by scintillation counting.
Harvested spinal cords from the vehicle treated control groups at the end-stage of their disease were separated by gender and used to conduct GTP7S binding experiments, which measure the capability of a ligand to promote or suppress G-protein activation.
It was next determined if the selective CB2 ligands antagonize G-protein activation produced by an endocannabinoid such as 2-AG as well.

CB1/CB2 receptors [1] = assay: [35S]GTPγS binding, selective antagonism of HU-210, WT-OE spinal cord membranes; format: biochemical, mouse
CB1/CB2 receptors [2] = assay: [35S]GTPγS binding, selective antagonism of HU-210, G93A spinal cord membranes; format: biochemical, mouse
CB1 receptors = details: cited from earlier work; for Ki: literature value, read-out: Ki at CB1 receptors
CB2 receptors = CB2 receptors (Homo sapiens, UniProt P34972); details: cited from earlier work
G93A-SOD1 mice [3] = assay: Survival of G93A mice, daily i.p. treatment initiated at symptom onset; format: in vivo, mouse; details: for survival improvement versus vehicle, females: female G93A mice; for survival improvement versus vehicle, females / survival improvement versus vehicle, males: 3 mg/kg for AM-1241 and AM630, JTE-907 dose not given; for survival improvement versus vehicle, males: male G93A mice
Text: Hemizygous transgenic male mice with the G93A mutation of the human SOD1 gene (G1H/1) mutation (B6SJL-TgN (SOD1-G93A) 1 Gur) were obtained from Jackson Laboratories and were bred locally with female B6SJL mice (Jackson Laboratory), according to the protocol obtained from the vendor. To decrease the inherent variability in disease onset and survival with these mice, littermate transgenic males (rather than random males from several different litters) were selected to sire subsequent generations of mice.
Determination of symptom onset, randomization and drug treatment of G93A mice. Symptom onset was assessed by blinded observation of changes in hind limb gait; these changes are related to the mouse's inability to support its weight on its hind limbs. At onset, mice initially place their weight on the toes and then quickly fall to full foot placement (as opposed to healthy mice which walk and run on the hind toes); this “toe-to-heel” walking pattern produces an asymmetric gait between hind and fore limbs and a characteristic “wobbling” gait. Mouse groups were randomized based on symptom onset and alternately placed in control and treated groups, e.g., the first mouse to develop hind limb weakness was placed in the control group, the second was injected with test compound and placed in the treatment group, and so on. […] By definition, the onset administration paradigm employed was focused on what we term the “survival interval”—namely the time from onset to end-stage sacrifice.
Mice were sacrificed when any of the following criteria were met: (1) inability to right themselves within 30 seconds when placed on their sides; (2) inability to eat or drink, or move toward food and water placed in low-rimmed dishes on cage floor; (3) loss of more than 10% of total body weight in 24 hours; (4) gross loss of grooming behavior; or (5) labored breathing. Criteria for death were confirmed by a second investigator who is blinded to the group identity of each mouse. The age of symptom onset was subtracted from the age at death for each mouse, and a mean survival interval was calculated for each group. By calculating the ratio of the survival interval of treated groups to the survival interval of untreated littermate controls, a X-fold increase in survival was readily determined.
The effect of chronic administration of cannabinoids on the survival of G93A mice was next examined (FIG. 4). […] The number of days between symptom onset and animal sacrifice was measured (e.g., survival interval). In humans, this is analogous to the time between diagnosis of ALS and death, ranging from 2-5 years.

[4] = Water solubility and dissolution in vehicles; details: for stable dissolution in tested vehicles: ethanol/water, glycerol, polyethylene glycol, high purity olive oil tested
G93A-SOD1 mice [5] = assay: Motor function test (clinging to perpendicular wire mesh screen for 60 seconds) in G93A mice; format: in vivo, mouse; details: for improvement in motor function versus vehicle, females: female G93A mice; for improvement in motor function versus vehicle, females / improvement in motor function versus vehicle, males: time to loss of ability to cling 60 seconds; for interval between mean loss of motor function and death, females: female mice, vehicle 19.0 days; for improvement in motor function versus vehicle, males: male G93A mice; for interval between mean loss of motor function and death, males: male mice, vehicle 20.5 days
Method: Beginning on the first day of observing symptoms, mice were tested for motor function biweekly until sacrifice. Motor function testing was initiated by gently placing animals on a horizontal wire mesh screen. The screen was slowly rotated to be perpendicular to the ground (90°). The duration that mice were able to hang onto the perpendicular wire mesh up to a maximum of 120 seconds was recorded. Because vehicle treated mice on average lost the ability to cling to the wire mesh for 60 seconds in the middle of their survival curve, this “all or none” response was utilized to compare motor function across all treatment groups. Kaplan-Meier time-to-event statistics were employed to analyze the data. The event was defined as the number of days after symptom onset that each individual animal was no longer able to cling to the wire mesh screen for 60 seconds.
Testing twice a week for the duration of the study provided a quantifiable decline during disease progression. Mice were placed on a horizontal wire mesh screen that was gently inverted to 90°. Kaplan-Meier time-to-event curves were used to analyze the data. The event was defined as the day each animal was no longer able to cling to the perpendicular screen for 60 seconds. […] The disparity between male and female motor function was paralleled by the interval between survival for the genders. Male mice survived an average of 39.6±2.0 (FIG. 6a) days past the onset of symptoms, while females lived 9 days longer than males (p<0.0018*, FIG. 6b). For males and females, loss of motor function preceded death by 20.5 (p<0.0002***) and 19.0 days (p<0.0028**), respectively.

[6] = WT-OE spinal cord membranes, HU-210 100 nM, antagonist 3 μM
[7] = female homogenates, HU-210 100 nM
[8] = male homogenates, HU-210 100 nM
[9] = G93A mice, i.p. daily from onset, 3.0 mg/kg
[10] = daily injections initiated at symptom onset

CB2 receptors, sequence (P34972 whole entry): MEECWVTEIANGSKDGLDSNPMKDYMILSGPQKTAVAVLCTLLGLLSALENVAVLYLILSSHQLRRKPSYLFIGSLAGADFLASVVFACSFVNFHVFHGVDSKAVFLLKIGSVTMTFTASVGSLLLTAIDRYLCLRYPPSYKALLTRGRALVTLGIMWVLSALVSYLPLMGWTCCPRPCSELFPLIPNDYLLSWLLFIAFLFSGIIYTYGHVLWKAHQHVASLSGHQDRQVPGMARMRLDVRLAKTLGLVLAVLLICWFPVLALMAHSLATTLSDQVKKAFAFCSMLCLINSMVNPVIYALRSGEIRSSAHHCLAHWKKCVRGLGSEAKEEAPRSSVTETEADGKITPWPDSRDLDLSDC

With CCCCCCC(C)(C)c1cc(O)c2c(c1)OC(C)(C)[C@@H]1CC=C(CO)C[C@@H]21 [HU-210, (−)-11-Hydroxy-delta(8)-tetrahydrocannabinol-dimethylheptyl] the “[35S]GTPγS binding to G-proteins produced by agonist” value (“[35S]GTPγS binding … by agonist” for short) (cannabinoid receptors; female spinal cord homogenates, HU-210 100 nM) was 40.59±8.5 fmole/mg protein, the “[35S]GTPγS binding … by agonist” value (cannabinoid receptors; male spinal cord homogenates, HU-210 100 nM) was 35.51±5.6 fmole/mg protein and the “[35S]GTPγS binding … by agonist” value (CB1/CB2 receptors [1]; WT-OE spinal cord membranes, HU-210 100 nM) was 30.7±6.2 fmole/mg protein. The “[35S]GTPγS binding … by agonist” value (CB1/CB2 receptors [2]; G93A spinal cord membranes, HU-210 100 nM) was 57.4±4.4 fmole/mg protein and the Ki (CB1 receptors) was about 0.5 nM.

With “N-[(1S)-endo-1,3,3-Trimethylbicyclo[2.2.1]heptan-2-yl]-5-(4-chloro-3-methylphenyl)-1-(4-ethoxybenzyl)-pyrazole-3-carboxamide [SR-144528]” the “net reduction of HU-210-induced G-protein activation” value (CB1/CB2 receptors [1]; WT-OE membranes, antagonist 3 μM) was 15.6 fmoles/mg protein, the “% blockade of HU-210-induced G-protein activation” value (CB1/CB2 receptors [1]; [6]) was “approximately 50%” and the “HU-210 stimulated [35S]GTPγS binding remaining on co-incubation with antagonist” value (CB1/CB2 receptors [1]; [6]) was 15.1±1.1 fmole/mg protein. The “% blockade of HU-210-induced G-protein activation” value (CB1/CB2 receptors [2]) was 49%, the “HU-210 stimulated [35S]GTPγS binding remaining on co-incubation with antagonist” value (CB1/CB2 receptors [2]) was 29.5±6.4 fmole/mg protein and the “net reduction of HU-210-induced G-protein activation” value (CB1/CB2 receptors [2]) was 27.9 fmole/mg protein.

In the case of Cc1c(C(=O)NN2CCCCC2)nn(-c2ccc(Cl)cc2Cl)c1-c1ccc(I)cc1 [AM-251, N-(Piperidin-1-yl)-5-(4-iodophenyl)-1-(2,4-dichlorophenyl)-4-methyl-1H-pyrazole-3-carboxamide], the Ki (CB1 receptors) is listed as about 7 nM and the “affinity at CB2 receptors weaker than at CB1” value (CB2 receptors; Gatley et al. 1997) is listed as “over 300 fold”.

With CCCCCC=CCC=CCC=CCC=CCCCC(=O)OC(CO)CO [2-AG, (5Z,8Z,11Z, 14Z)-5,8,11,14-Eicosatetraenoic acid, 2-hydroxy-1-(hydroxymethyl) ethyl ester] the “[35S]GTPγS binding … by agonist” value (cannabinoid receptors; female spinal cord homogenate, 2-AG 3 μM) was 29.93±3.3 fmole/mg protein, the “Emax of G-protein activation” value (cannabinoid receptors; female transgenic spinal cord) was 17.81±1.89 and the “[35S]GTPγS binding … by agonist” value (cannabinoid receptors; male spinal cord homogenate, 2-AG 3 μM) was 31.30±1.7 fmole/mg protein. The “Emax of G-protein activation” value (cannabinoid receptors; male transgenic spinal cord) was 23.21±5.82.

For Cc1c(C(=O)c2cccc3ccccc23)c2cccc3c2n1C(CN1CCOCC1)CO3 (centres unmarked) [WIN-55,212-2, [2,3-Dihydro-5-methyl-3-[(morpholinyl)methyl]pyrrolo-[1,2,3-de]-1,4-benzoxazin-yl]-(1-naphthalenyl)methanone], the “increase in survival interval versus vehicle” value (G93A-SOD1 mice [3]; 5 mg/kg daily i.p.) was 8.8 days, the “survival interval (symptom onset to sacrifice)” value (G93A-SOD1 mice [3]; 5 mg/kg daily i.p., vehicle 23.7+/−1.7 days) was 32.5 ± 3.6 days and the “water solubility” value [4] was “very poor water solubility”. The “stable dissolution in tested vehicles” value [4] was “achieved only with olive oil”.

In the case of “(−)-cis-3-[2-Hydroxy-4-(1,1-dimethylheptyl)-phenyl]-trans-4-(3-hydroxypropyl)-cyclohexanol) [CP-55,940]”, the Ki (CB1 receptors) is listed as about 0.5 nM.

In the case of CCCCCOc1c(OC)ccc2cc(C(=O)NCc3ccc4c(c3)OCO4)c(=O)[nH]c12 [JTE-907], the “reduction of HU-210 induced G-protein activation (CB2 receptor antagonism)” value (cannabinoid receptors; female homogenate) is reported as 31.34 fmole/mg protein, the “2-AG stimulated G-protein activation remaining on co-incubation with CB2 ligand” value (cannabinoid receptors; female homogenate, 2-AG 3 μM) is reported as 5.96±0.97 fmole/mg protein and the “HU-210 stimulated G-protein activation remaining on co-incubation with CB2 ligand” value (cannabinoid receptors; [7]) is reported as 9.25±1.2 fmole/mg protein. For the same compound, the “reduction of HU-210 induced G-protein activation (CB2 receptor antagonism)” value (cannabinoid receptors; male homogenate) was 12.31 fmole/mg protein, the “2-AG stimulated G-protein activation remaining on co-incubation with CB2 ligand” value (cannabinoid receptors; male homogenate, 2-AG 3 μM) was 18.14±2.1 fmole/mg protein and the “HU-210 stimulated G-protein activation remaining on co-incubation with CB2 ligand” value (cannabinoid receptors; [8]) was 23.3 fmole/mg protein. For the same compound, the “survival improvement versus vehicle, females” value (G93A-SOD1 mice [3]) was 25%, the “survival improvement versus vehicle, males” value (G93A-SOD1 mice [3]) was “did not live significantly longer” and the “improvement in motor function versus vehicle, females” value (G93A-SOD1 mice [5]) was 92%. For the same compound, the “interval between mean loss of motor function and death, females” value (G93A-SOD1 mice [5]) was 4 days, the “improvement in motor function versus vehicle, males” value (G93A-SOD1 mice [5]) was 61% and the “interval between mean loss of motor function and death, males” value (G93A-SOD1 mice [5]) was 10.7 days. For the same compound, the “water solubility” value [4] was “very poor water solubility” and the “stable dissolution in tested vehicles” value [4] was “achieved only with olive oil”.

With COc1ccc(C(=O)c2c(C)n(CCN3CCOCC3)c3cc(I)ccc23)cc1 [AM-630] the “2-AG stimulated G-protein activation remaining on co-incubation with CB2 ligand” value (cannabinoid receptors; female homogenate, 2-AG 3 μM) was 8.49±3.7 fmole/mg protein, the “HU-210 stimulated G-protein activation remaining on co-incubation with CB2 ligand” value (cannabinoid receptors; [7]) was 17.76±3.3 fmole/mg protein and the “2-AG stimulated G-protein activation remaining on co-incubation with CB2 ligand” value (cannabinoid receptors; male homogenate, 2-AG 3 μM) was 6.66±3.9 fmole/mg protein. The “HU-210 stimulated G-protein activation remaining on co-incubation with CB2 ligand” value (cannabinoid receptors; [8]) was 21.02±5.6 fmole/mg protein, the “Survival Interval Ratio (SIR)” value (G93A-SOD1 mice [3]; [9]) was 2.30 and the “Total Life-Span Ratio (TLR)” value (G93A-SOD1 mice [3]; [9]) was 1.27. For the same compound, the “survival compared with AM-1241 treated mice” value (G93A-SOD1 mice [3]; G93A-SOD1 mice) was “survived twice as long as those mice treated with AM-1241”, the “extension of total life-span versus controls” value (G93A-SOD1 mice [3]; [10]) was 27% and the “living longer after symptom onset than controls (survival interval increase)” value (G93A-SOD1 mice [3]; [10]) was 130%. The “survival improvement versus vehicle, females” value (G93A-SOD1 mice [3]) was 8%, the “survival improvement versus vehicle, males” value (G93A-SOD1 mice [3]) was 27% and the “effect on survival of G93A-SOD1 mice” value (G93A-SOD1 mice [3]; treatment initiated at symptom onset) was “pronounced increase in survival”. The “affinity for CB1 receptors less than for CB2” value (CB1 receptors; Hosohata et al. 1997) was “more than 165 fold”, the “improvement in motor function versus vehicle, females” value (G93A-SOD1 mice [5]) was 48% and the “interval between mean loss of motor function and death, females” value (G93A-SOD1 mice [5]) was 8.7 days. For the same compound, the “improvement in motor function versus vehicle, males” value (G93A-SOD1 mice [5]) was 64%, the “interval between mean loss of motor function and death, males” value (G93A-SOD1 mice [5]) was 18.9 days and the Ki (CB2 receptors; literature value, read-out: Ki at CB2 receptors) was about 20 nM. For the same compound, the “water solubility” value [4] was “very poor water solubility” and the “stable dissolution in tested vehicles” value [4] was “achieved only with olive oil”.

— patent US20090124608A1, “CB2 Receptor Modulators In Neurodegenerative Diseases And Applications Of The Same” (priority 2006, published 2009)
